Data: patent US11291208B2, “Ternary herbicide combinations” (Bayer CropScience Aktiengesellschaft, priority 2013, dated 2022)

How the values were obtained:
Assay type in all cases: in vivo
CENCY: Centaurea Cyanus = assay: Herbicidal action, outdoor/field trials, post-emergence; conditions: crop TRZAW, field trials
Description: (§1) The seeds or rhizome pieces of typical harmful plants were planted and grown under natural outdoor conditions. After the harmful plants had emerged, they were treated, as a rule at the 2- to 4-leaf stage, with various dosages of the compositions according to the invention at a water application rate of […] (converted).
(§2) After the treatment (approx. 4-6 weeks after application), the herbidical activity of the active compounds or active compound mixtures was scored visually by comparing the treated plots with the untreated control plots. Damage and development of all above-ground parts of the plants was recorded. Scoring was done on a percentage scale (100% action=all plants dead; 50% action=50% of the plants and green plant parts dead; 0% action=no discernible action=like control plot). The score figures of in each case 4 plots were averaged.
(§3) The growth stages of the different weed species are indicated according to the BBCH monograph “Growth stages of mono- and dicotyledonous plants”, 2nd edition, 2001, ed. Uwe Meier, Federal Biological Research Centre for Agriculture and Forestry (Biologische Bundesanstalt für Land and Forstwirtschaft). The respective BBCH stages are indicated in brackets for the different weed species.
(§4) The dose rates of herbicidal ingredients used in each case are indicated for the respective active ingredient in brackets and refer to the amount of active ingredient per hectare (g/ha).
(§5) The herbicidal effects observed for the herbicide (mixtures) are indicated in % Activity against the respective weed. The % Damage indicated refers to the maximum damage observed in the respective crop.
(§6) The results of the treatments are reflected in the Tables below, and the activity measured for the independent use of the active compounds (A+B)+(C) is stated in brackets. The treatments were carried out using Mesosulfuron-methyl (A1-1) or Mesosulfuron-methyl-sodium (A1-2) as component (A), and Iodosulfuron-methyl (B1-1) or Iodosulfuron-methyl-sodium (B1-2) as component (B). The results of the treatments in these cases were essentially identical.

[1] = test system: FUMOF: Fumaria officinalis; assay: as above; conditions: HALXF 276.5 g/ha, crop TRZAW, field trials
Description: as §1, §2, §3, §4, §5, §6

GALAP: Galium aparine = assay: as above; conditions: crop TRZAW, field trials
Description: as §1, §2, §3, §4, §5, §6

PAPRH: Papaver rhoeas = assay: as above; conditions: field trials
Description: as §1, §2, §3, §4, §5, §6

[2] = test system: TRZAW: Triticum aestivum (soft wheat); assay: Crop damage in field trials (maximum damage observed in the crop)
Description: as §1, §2, §4, §5, §6

BROST: Bromus sterilis = assay: Herbicidal action, outdoor/field trials, post-emergence; conditions: PXD 60 g/ha, BROST (25), crop TRZAW, field trials
Description: as §1, §2, §3, §4, §5, §6

[3] = test system: GERDI: Geranium dissectum; assay: as above; conditions: crop TRZAW, field trials
Description: as §1, §2, §3, §4, §5, §6

[4] = test system: VERHE: Veronica hederifolia; assay: as above; conditions: PXD 60 g/ha, VERHE (71), crop TRZAW, field trials
Description: as §1, §2, §3, §4, §5, §6

VERPE: Veronica persica = assay: as above; conditions: crop TRZAW, field trials
Description: as §1, §2, §3, §4, §5, §6

LOLRI: Lolium rigidum = assay: as above
Description: as §1, §2, §3, §4, §5, §6

AVEST: Avena sterilis = assay: as above; conditions: TCM 7.5 g/ha, AVEST (23), crop TRZDU, field trials
Description: as §1, §2, §3, §4, §5, §6

[5] = test system: LAMAM: Lamium amplexicaule; assay: as above; conditions: TCM 7.5 g/ha, LAMAM (32), crop TRZAW, field trials
Description: as §1, §2, §3, §4, §5, §6

LAMPU: Lamium purpureum = assay: as above; conditions: TCM 7.5 g/ha, LAMPU (61), crop TRZAW, field trials
Description: as §1, §2, §3, §4, §5, §6

[6] = test system: LOLMU: Lolium multiflorum; assay: as above; conditions: TCM 7.5 g/ha, LOLMU (23), crop TRZDU, field trials
Description: as §1, §2, §3, §4, §5, §6

[7] = test system: MATIN: Matricaria inodora; assay: as above; conditions: Tripleurospermum inodorum, TCM 7.5 g/ha, MATIN (19), crop TRZAW, field trials
Description: as §1, §2, §3, §4, §5, §6

PICEC: Picris echioides = assay: as above; conditions: Helminthotheca echioides, TCM 7.5 g/ha, PICEC (22), crop TRZDU, field trials
Description: as §1, §2, §3, §4, §5, §6

VIOAR: Viola arvensis = assay: as above; conditions: TCM 7.5 g/ha, VIOAR (15), crop TRZAW, field trials
Description: as §1, §2, §3, §4, §5, §6

[8] = test system: TRZDU: Triticum aestivum (durum wheat); assay: Crop damage in field trials (maximum damage observed in the crop); conditions: TCM 7.5 g/ha
Description: as §1, §2, §4, §5, §6

COc1c(Cl)ccc(-c2cc(N)c(Cl)c(C(=O)O)n2)c1F [HALXF, 4-amino-3-chloro-6-(4-chloro-2-fluoro-3-methoxyphenyl)-2-pyridinecarboxylic acid]
inhibition at 276.5 g/ha (CENCY: Centaurea Cyanus; HALXF 276.5 g/ha, CENCY): 45%
inhibition at 276.5 g/ha [1]: 85%
inhibition at 276.5 g/ha (GALAP: Galium aparine; HALXF 276.5 g/ha, GALAP): 73%
inhibition at 276.5 g/ha (PAPRH: Papaver rhoeas; HALXF 276.5 g/ha, PAPRH, crop TRZAW): 75%
% Damage ([2]; HALXF 276.5 g/ha, listed as CENCY): 0%
% Damage ([2]; HALXF 276.5 g/ha, listed as FUMOF): 0%
% Damage ([2]; HALXF 276.5 g/ha, listed as GALAP): 0%
% Damage ([2]; HALXF 276.5 g/ha, listed as PAPRH): 0%

CCc1cc(C)cc(CC)c1-c1c(OC(=O)C(C)(C)C)n2n(c1=O)CCOCC2 [PXD, 8-(2,6-diethyl-4-methylphenyl)-1,2,4,5-tetrahydro-7-oxo-7H-pyrazolo[1,2-d][1,4,5]oxadiazepin-9-yl 2,2-dimethylpropanoate]
inhibition at 60 g/ha (BROST: Bromus sterilis): 0%
inhibition at 60 g/ha (CENCY: Centaurea Cyanus; PXD 60 g/ha, CENCY (38)): 60%
inhibition at 60 g/ha ([3]; PXD 60 g/ha, GERDI (19)): 30%
inhibition at 60 g/ha [4]: 13%
inhibition at 60 g/ha (VERPE: Veronica persica; PXD 60 g/ha, VERPE (31)): 0%
% Damage ([2]; PXD 60 g/ha, listed as BROST (25)): 0%
% Damage ([2]; PXD 60 g/ha, listed as CENCY (38)): 15%
% Damage ([2]; PXD 60 g/ha, listed as GERDI (19)): 4%
% Damage ([2]; PXD 60 g/ha, listed as VERHE (71)): 0%
% Damage ([2]; PXD 60 g/ha, listed as VERPE (31)): 0%

COc1cc(OC)n2nc(NS(=O)(=O)c3c(C(F)(F)F)ccnc3OC)nc2n1 [PYX, N-(5,7-dimethoxy[1,2,4]triazolo[1,5-a]pyrimidin-2-yl)-2-methoxy-4-(trifluoromethyl)-3-pyridinesulfonamide]
inhibition at 17 g/ha (LOLRI: Lolium rigidum; PYX 17 g/ha, LOLRI (10)): 20%

COC(=O)c1csc(C)c1S(=O)(=O)NC(=O)n1nc(OC)n(C)c1=O [TCM, methyl 4-[(4,5-dihydro-3-methoxy-4-methyl-5-oxo-1H-1,2,4-triazol-1-yl)carbonylsulfamoyl]-5-methylthiophene-3-carboxylate]
inhibition at 7.5 g/ha (AVEST: Avena sterilis): 33%
inhibition at 7.5 g/ha (CENCY: Centaurea Cyanus; TCM 7.5 g/ha, CENCY (19)): 38%
inhibition at 7.5 g/ha (GALAP: Galium aparine; TCM 7.5 g/ha, GALAP (23)): 37%
inhibition at 7.5 g/ha ([3]; TCM 7.5 g/ha, GERDI (29)): 63%
inhibition at 7.5 g/ha [5]: 68%
inhibition at 7.5 g/ha (LAMPU: Lamium purpureum): 70%
inhibition at 7.5 g/ha [6]: 43%
inhibition at 7.5 g/ha (LOLRI: Lolium rigidum; TCM 7.5 g/ha, LOLRI (29), crop TRZDU, field trials): 52%
inhibition at 7.5 g/ha [7]: 20%
inhibition at 7.5 g/ha (PAPRH: Papaver rhoeas; TCM 7.5 g/ha, PAPRH (15), crop TRZDU): 70%
inhibition at 7.5 g/ha (PICEC: Picris echioides): 69%
inhibition at 7.5 g/ha (VERPE: Veronica persica; TCM 7.5 g/ha, VERPE): 10%
inhibition at 7.5 g/ha (VIOAR: Viola arvensis): 38%
% Damage ([2]; TCM 7.5 g/ha, listed as CENCY (19)): 0%
% Damage ([2]; TCM 7.5 g/ha, listed as CENCY (19), Table 2B): 0%
% Damage ([2]; TCM 7.5 g/ha, listed as GALAP (23)): 0%
% Damage ([2]; TCM 7.5 g/ha, listed as GALAP (23), Table 2B): 0%
% Damage ([2]; TCM 7.5 g/ha, listed as GERDI (29)): 0%
% Damage ([2]; TCM 7.5 g/ha, listed as GERDI (29), Table 2B): 0%
% Damage ([2]; TCM 7.5 g/ha, listed as LAMAM (32)): 1%
% Damage ([2]; TCM 7.5 g/ha, listed as LAMAM (32), Table 2B): 1%
% Damage ([2]; TCM 7.5 g/ha, listed as LAMPU (61)): 1%
% Damage ([2]; TCM 7.5 g/ha, listed as LAMPU (61), Table 2B): 1%
% Damage ([2]; TCM 7.5 g/ha, listed as MATIN (19)): 0%
% Damage ([2]; TCM 7.5 g/ha, listed as MATIN (19), Table 2B): 0%
% Damage ([2]; TCM 7.5 g/ha, listed as VERPE): 1%
% Damage ([2]; TCM 7.5 g/ha, listed as VERPE, Table 2B): 1%
% Damage ([2]; TCM 7.5 g/ha, listed as VIOAR (15)): 0%
% Damage ([2]; TCM 7.5 g/ha, listed as VIOAR (15), Table 2B): 0%
% Damage ([8]; listed as AVEST (23)): 0%
% Damage ([8]; listed as AVEST (23), Table 1B): 0%
% Damage ([8]; listed as LOLMU (23)): 0%
% Damage ([8]; listed as LOLMU (23), Table 1B): 0%
% Damage ([8]; listed as LOLRI (29)): 5%
% Damage ([8]; listed as LOLRI (29), Table 1B): 5%
% Damage ([8]; listed as PAPRH (15)): 0%
% Damage ([8]; listed as PAPRH (15), Table 1B): 0%
% Damage ([8]; listed as PICEC (22)): 5%
% Damage ([8]; listed as PICEC (22), Table 1B): 5%
